Measurements as given in patent US11590129B2, “Combination therapy with an antitumor alkaloid” (PHARMA MAR, S.A., priority 2010, dated 2023).
Where two headings read alike, the source gives them in different places.

Experiments:
[1] = tested on: A549 human lung carcinoma cell line; experiment: MTT cytotoxicity assay in A549 cells: IC50 of single agents and combinations with PM01183; format: cell-based; settings: Homo sapiens
Method: (§1) Additional serial dilutions were prepared in serum-free culture medium to achieve a final 4× concentration. Aliquots of 50 μL of each diluted compound were added per well.
A549 was the human lung carcinoma cell line selected for this assay.
(§2) a. […] Briefly, cells were harvested and seeded in 96 well microtiter plates at a density of 5,000 cells in 150 μL of culture medium and incubated for 24 hours in drug-free medium before treatment with vehicle alone or test compounds for 72 h.
(§3) The cytotoxic effect was measured by the MTT reduction assay, in which 3-(4,5-Dimethylthiazol-2-yl)-2,5-diphenyltetrazolium bromide, a tetrazole, which is reduced to purple formazan in the mitochondria of living cells, was used. MTT (50 μL of 1 mg/mL stock solution) was added to the wells and incubated for 8 hours at 37° C. until formazan crystals were formed. After gently removing the culture medium, DMSO was added to dissolve the insoluble purple formazan product into a colored solution. […] Results were expressed as percentage of control cell growth.
(§4) b. In a second set of assays, A549 human tumor cells were incubated with PM01183 in combination with each of the agents mentioned above.
(§5) As a visual aid, response values were plotted on a scatter plot with dose ratios given on the x-axis and % response values on the y-axis. […] In cases where response values at the two endpoints were approximately equivalent, points lying above or below this predicted line of additivity could be interpreted as representing antagonistic or synergistic drug interaction, respectively.

[2] = tested on: A673 human rhabdomyosarcoma cell line; experiment: cells; settings: Homo sapiens, A673, 72 h
Method: as §2, §3, §4, §5, §1
A673 was the human rhabdomyosarcoma cell line selected for this assay.

[3] = tested on: SK-MEL-2 human melanoma cell line; experiment: cells; settings: Homo sapiens, SK-MEL-2, 72 h
Method: as §2, §3, §4, §5, §1
SK-MEL-2 was the human melanoma cell line selected for this assay.

[4] = tested on: PC-3 human prostate cancer cell line; experiment: cells; settings: Homo sapiens, PC-3, 72 h
Method: as §2, §3, §4, §5, §1
PC-3 was the human prostate adenocarcinome cell line selected for this assay.

[5] = tested on: PANC-1 human pancreatic carcinoma cell line; experiment: cells; settings: Homo sapiens, PANC-1, 72 h
Method: as §2, §3, §4, §5, §1
PANC-1 was the human pancreatic carcinoma cell line selected for this assay.

[6] = tested on: HGC-27 human gastric carcinoma cell line; experiment: cells; settings: Homo sapiens, HGC-27, 72 h
Method: as §2, §3, §4, §5, §1
HGC-27 was the human gastric carcinoma cell line selected for this assay.

[7] = tested on: IGROV-1 human ovarian adenocarcinoma cell line; experiment: cells; settings: Homo sapiens, IGROV-1, 72 h
Method: as §2, §3, §4, §5, §1
IGROV-1 was the human ovarian adenocarcinoma cell line selected for this assay.

[8] = tested on: HepG2 human hepatocellular liver carcinoma cell line; experiment: MTT cytotoxicity assay in HepG2 cells: IC50 of single agents and combinations with PM01183; format: cell-based; settings: Homo sapiens, HepG2, 72 h
Method: as §2, §3, §4, §5, §1
HepG2 was the human hepatocellular liver carcinoma cell line selected for this assay.

[9] = tested on: MDA-MB-231 human breast adenocarcinoma cell line; experiment: cells; settings: Homo sapiens, MDA-MB-231, 72 h
Method: as §2, §3, §4, §5, §1

[10] = tested on: RXF-393 human kidney carcinoma cell line; experiment: cells; settings: Homo sapiens, RXF 393, 72 h
Method: as §2, §3, §4, §5, §1

[11] = tested on: HT-29 human colon adenocarcinoma cell line; experiment: cells; settings: Homo sapiens, HT-29, 72 h
Method: as §2, §3, §4, §5, §1
HT-29 was the human colon adenocarcinoma cell line selected for this assay.

[12] = tested on: U87-MG human glioblastoma cell line; experiment: cells; settings: Homo sapiens, U-87 MG, 72 h
Method: as §2, §3, §4, §5, §1
U87-MG was the human glioblastoma cell line selected for this assay.

`COc1cc([C@@H]2c3cc4c(cc3[C@@H](O[C@@H]3O[C@@H]5CO[C@@H](C)O[C@H]5[C@H](O)[C@H]3O)[C@H]3COC(=O)[C@H]23)OCO4)cc(OC)c1O` [Etoposide, etoposide] showed an IC50 ([1]; A549, 72 h) of 782 nM, an IC50 [2] of 1550 nM and an IC50 [3] of 2890 nM. The IC50 [4] was 48000 nM, the IC50 [5] was 10000 nM and the IC50 [6] was 2900 nM. For the same molecule, the IC50 [7] was 3060 nM, the IC50 [8] was 10400 nM and the IC50 [9] was 4800 nM. It also gave an IC50 [10] of 20000 nM, an IC50 [11] of 5440 nM and an IC50 [12] of 18500 nM.

`CO[C@H]1C[C@@H]2CC[C@@H](C)[C@@](O)(O2)C(=O)C(=O)N2CCCC[C@H]2C(=O)O[C@H]([C@H](C)C[C@@H]2CC[C@@H](OC(=O)C(C)(CO)CO)[C@H](OC)C2)CC(=O)[C@H](C)/C=C(\C)[C@@H](O)[C@@H](OC)C(=O)[C@H](C)C[C@H](C)/C=C/C=C/C=C/1C` [Temsirolimus, temsirolimus] gave an IC50 ([1]; A549, 72 hours drug exposure, MTT, read-out: IC50) of 3290 nM, an IC50 [2] of 1000 nM and an IC50 [3] of 50000 nM. The IC50 [4] was 500 nM, the IC50 [5] was 10000 nM and the IC50 [6] was 150 nM. For the same molecule, the IC50 [7] was 127 nM, the IC50 [9] was 12000 nM and the IC50 [11] was 3500 nM. For the same molecule, the IC50 [12] was 3500 nM.

With `CC[C@@]1(O)C(=O)OCc2c1cc1n(c2=O)Cc2cc3c(CN(C)C)c(O)ccc3nc2-1` [Topotecan, topotecan] the IC50 ([1]; A549, 72 h) was 800 nM, the IC50 [2] was 24 nM and the IC50 [3] was 437 nM. For the same molecule, the IC50 [4] was 633 nM, the IC50 [5] was 4370 nM and the IC50 [6] was 808 nM. For the same molecule, the IC50 [7] was 300 nM, the IC50 [8] was 1000 nM and the IC50 [9] was 166 nM. The IC50 [10] was 393 nM, the IC50 [11] was 328 nM and the IC50 [12] was 750 nM.
